Data set [1] is described as follows: Fluorescence quantum yield and brightness with and without CB7. It counts as physicochemical. Set-up: ε × φf (brightness): unit not given beside the values.
Data set [2] can be described thus: Absorption and fluorescence maxima with and without CB7. It counts as physicochemical. More on the design: unit not given here. The text has this: Addition of cucurbiturils leads to the formation of complexes with fluorescent dyes, which have changed photophysical properties, see examples in Table 3.
Data set [3] in a line: Decrease of fluorescence intensity of dye solutions stored in daylight (ambient light). The following applies: for Stabilisation factor: with 1 mM CB7, daylight; for fluorescence intensity after exposure to daylight: 300 hours. It counts as physicochemical. The method, then:
As an alternative, the decrease in the fluorescence intensity of the above-described solutions was determined by observing their fluorescence (Cary Eclipse Fluorometer, Varian) when the solutions were stored in daylight (ambient light). The fluorescence intensity remained unchanged over the observation period for the solution containing cucurbituril, whereas it felt markedly for the cucurbituril-free solution (FIG. 3), with approximate half-lives of about 80 to 390 hours, depending on the sample vessel.

The nature of data set [4]: Photostabilisation of fluorescent dyes by cucurbiturils (preliminary tests, tests carried out hitherto). The conditions noted are these: for photostabilisation by the use of a cucurbituril: in particular cucurbit[7]uril; for photostabilisation of conventional fluorescent dyes by the cucurbituril: preliminary tests, in particular xanthene and cyanine fluorescent dyes.
Data set [5] is described as follows: Photobleaching of aqueous dye solution under 532-nm Nd-YAG laser irradiation, monitored by UV-Vis absorption.
Description: The addition of cucurbituril (mixture of a plurality of cucurbiturils, wherein cucurbit[7]uril (formula (D), also known as CB7) was the predominant species according to mass spectrometry, with cucurbit[5]uril as a detectable impurity), concentration of cucurbit[7]uril 1-2 mM, mixture prepared as described in C. […] The photostabilisation of the fluorescent dye stabilised by cucurbituril (CB7) was monitored by the characteristic visible absorption band with a Varian Cary 50 UV-VIS spectrophotometer, based on a cucurbituril-free, optically adapted (at 532 nm) solution of the fluorescent dye. The UV-Vis spectra were recorded at different irradiation times (FIG. 1), and the decreasing absorption (A) at 532 nm was plotted against the pertinent function log([10^A0−1]/[10^A−1]). […] The concentrations with and without cucurbit[7]uril are not identical, but were so chosen that the absorbance at 532 nm was identical at the start of irradiation. The concentration of rhodamine 6G was lower in samples containing cucurbit[7]uril than in samples without cucurbit[7]uril owing to a higher extinction coefficient.
The quantum yield of the photobleaching was determined by means of the initial linear region of the graph (FIG. 2) of the ratio of the gradients S(D)/S(D+CB7)=εDφb(D)/[εD+CB7φb(D+CB7)], wherein εD+CB7 and εD are the extinction coefficient of the dye (D) with and without CB7 at the irradiation wavelength of 532 nm.
The chosen stabilisation factor was the ratio of the quantum yields of the photobleaching in the absence and presence of CB7.
The nature of data set [6]: Decrease in photon count rate in fluorescence correlation spectroscopy (FCS) on a confocal microscope. It counts as physicochemical. The following applies: for relative photon count rate: irradiation for 2000 seconds; for count rate present: after 30 minutes irradiation, 10 nM dye. The method, then:
Aqueous solutions of fluorescent dyes (10 nM) with and without cucurbit[7]uril (1 mM) were also studied by fluorescence correlation spectroscopy (FCS) on a confocal microscope (Carl Zeiss LSM 510 Confocor 2), which is used for several applications relevant for biology, biochemistry and spectroscopy. 400 μl of each solution were transferred to an 8-chamber cover glass system and irradiated with the light of a CW laser. The decrease in the count rate, which is directly proportional to the mean fluorescence intensity of the sample, was measured against the irradiation time. […] Considerable photostabilisation can again be seen, because without cucurbit[7]uril less than 30%, but with cucurbit[7]uril still more than 90% of the count rate is present after 30 minutes. The observed photostabilisation factors are contained in Table 2 (footnotes b, c, d).
The photon count rate in samples containing cucurbit[7]uril fell during irradiation for 2000 seconds only to about 95%, while the […] of the cucurbit[7]uril-free sample fell to about 25% of the initial value in the same time.

Marks after values point to notes of the source that are not given here.

Take `Cc1cc(=O)oc2c3c4c(cc12)CCCN4CCC3` [Coumarin-102, coumarin 102]: the “absorbance (extinction coefficient) and fluorescence quantum yield (intensity) in a complex with cucurbituril versus without” value in data set [1] is “greater”. The “ε × φf (brightness)” value in data set [1] (with 1 mM CB7) came to 17807; in data set [1] (without CB7), 14388. The figures for the φf in data set [1] (with 1 mM CB7) and in data set [1] (without CB7) were 0.754 and 0.66, respectively. The λabs max in data set [2] (with 1 mM CB7) was found to be 404.6; in data set [2] (without CB7) it was 392.6. In addition, the results for the λem max in data set [2] (with 1 mM CB7) and in data set [2] (without CB7) were 476.0 and 489.0, respectively.

In the case of `CCN1C(=CC=CC2=[N+](CC)c3ccc(S(=O)(=O)[O-])cc3C2(C)C)C(C)(C)c2cc(S(=O)(=O)O)ccc21` [Cyanine 3, cyanine 3], in data set [1] (with 1 mM CB7), the “ε × φf (brightness)” value is 11502 and the φf was 0.108. Also, in data set [1] (without CB7), the “ε × φf (brightness)” value came out at 18000 and the φf worked out at 0.15. In data set [2] (with 1 mM CB7), this compound gave a λabs max of 558.6 and a λem max of 571.0. In data set [2] (without CB7), this compound showed a λabs max of 544.6 and a λem max of 560.0.

With `CCN1C(=CC=CC=CC2=[N+](CC)c3ccc(S(=O)(=O)[O-])cc3C2(C)C)C(C)(C)c2cc(S(=O)(=O)O)ccc21` [Cyanine 5, cyanine 5], the “absorbance (extinction coefficient) and fluorescence quantum yield (intensity) in a complex with cucurbituril versus without” value in data set [1] is “greater”. The “ε × φf (brightness)” value in data set [1] (with 1 mM CB7) is recorded as 51000; in data set [1] (without CB7), 37260. Further, the φf in data set [1] (with 1 mM CB7) came to 0.456; in data set [1] (without CB7) it was 0.27. Further, the λabs max in data set [2] (with 1 mM CB7) amounted to 642.2; in data set [2] (without CB7), 642.0. In addition, the λem max turned out to be 657.0 in data set [2] (with 1 mM CB7) and 660.0 in data set [2] (without CB7).

As to `CCN=c1cc2oc3cc(NCC)c(C)cc3c(-c3ccccc3C(=O)OCC)c-2cc1C.Cl` [Rhodamine 6G, rhodamine 6G], the Stabilisation factor in data set [3] (quartz cuvette) is given as >500*; in data set [3] (screw-top glass bottle) it was >5000*; in data set [5] (1 mM CB7, 3 μM dye solutions, 532-nm laser light (1.3 W, 10 Hz) of a Nd-YAG laser) it was 30.0^a; in data set [5] (with 1 mM CB7, high laser power (2.1 W), 532 nm), 7.5*; in data set [5] (with 1 mM CB7, low laser power (1.3 W), 532 nm) it was 30*. For the same compound, the “fluorescence intensity after exposure to daylight” value is “hardly decreases at all” in data set [3] (with cucurbit[7]uril in glass bottles); 60 % of the original value in data set [3] (without cucurbit[7]uril, glass bottle); 90 % of the original value in data set [3] (without cucurbit[7]uril, quartz cuvettes). Also, the “ε × φf (brightness)” value is listed as 81594 in data set [1] (with 1 mM CB7) and 71218 in data set [1] (without CB7). In addition, the φf in data set [1] (with 1 mM CB7) came out at 0.883; in data set [1] (without CB7) it was 0.89. The λabs max in data set [2] (with 1 mM CB7) stood at 534.6; in data set [2] (without CB7) it was 526.0. Moreover, the λem max in data set [2] (with 1 mM CB7) was 555.0; in data set [2] (without CB7), 552.0. For the same compound, the “photostabilisation by the use of a cucurbituril” value (shortened to “photostabilisation by the use”) in data set [4] is reported as “Particularly good photostabilisation”. Moreover, the “number of absorption cycles before a molecule decomposes” value in data set [5] (with addition of cucurbit[7]uril (CB7 solution)) is recorded as 22 million; in data set [5] (without cucurbit[7]uril), 0.8 million.

As to `CN(C)c1ccc2c(-c3ccccc3C(=O)[O-])c3ccc(N(C)C)cc3[o+]c2c1` [Tetramethylrhodamine, tetramethylrhodamine], the Stabilisation factor in data set [6] (1 mM CB7, 10 nM dye solutions, 514-nm laser light (30 mW, cw), FCS, after 35 minutes, via photon count rate) is given as 4.3^b. The “relative photon count rate” value in data set [6] (cucurbit[7]uril-free sample) is “about 25 % of the initial value”; in data set [6] (with cucurbit[7]uril), “about 95 % of the initial value”. Besides, the count rate present result in data set [6] (with cucurbit[7]uril (1 mM)) was “more than 90%”; in data set [6] (without cucurbit[7]uril), “less than 30%”. For the same compound, the “ε × φf (brightness)” value in data set [1] (with 1 mM CB7) is 20277; in data set [1] (without CB7) it was 17553. Besides, the φf in data set [1] (with 1 mM CB7) amounted to 0.271; in data set [1] (without CB7), 0.20. Further, the λabs max turned out to be 558.6 in data set [2] (with 1 mM CB7) and 552.6 in data set [2] (without CB7). Moreover, the λem max in data set [2] (with 1 mM CB7) worked out at 582.0; in data set [2] (without CB7), 577.0. For the same compound, in data set [4], the “photostabilisation by the use” value was “Particularly good photostabilisation”.

With `Cc1c(C)c2cc3c4c(c2oc1=O)CCCN4CCC3` [coumarin 39], the “photostabilisation by the use” value in data set [4] was “Particularly good photostabilisation”.

As for `O=C1N2CN3C(=O)N4CN5C(=O)N6CN7C(=O)N8CN9C(=O)N%10CN1C1C2N2CN%11C(=O)N(CN%12C(=O)N(CN%13C(=O)N(CN%14C(=O)N(CN1C2=O)C%10C%149)[C@H]8[C@H]7%13)[C@H]6[C@H]5%12)C4C3%11` (some centres unmarked) [cucurbit[5]uril], in data set [4], the “photostabilisation of conventional fluorescent dyes by the cucurbituril” value (“photostabilisation … by the cucurbituril” below) is given as “best photostabilisation”.

Consider `O=C1N2CN3C(=O)N4CN5C(=O)N6CN7C(=O)N8CN9C(=O)N%10CN%11C(=O)N%12CN1C1C2N2CN%13C(=O)N(CN%14C(=O)N(CN%15C(=O)N(CN%16C(=O)N(CN%17C(=O)N(CN1C2=O)C%12C%11%17)C%10C9%16)C8C7%15)C6C5%14)C4C3%13` (centres unmarked) [cucurbit[6]uril], for which, in data set [4], the “photostabilisation … by the cucurbituril” value is reported as “best photostabilisation”.

For `O=C1N2CN3C(=O)N4CN5C(=O)N6CN7C(=O)N8CN9C(=O)N%10CN%11C(=O)N%12CN%13C(=O)N%14CN%15C(=O)N%16CN1C1C2N2CN%17C(=O)N(CN%18C(=O)N(CN%19C(=O)N(CN%20C(=O)N(CN%21C(=O)N(CN%22C(=O)N(CN%23C(=O)N(CN1C2=O)C%16C%15%23)C%14C%13%22)C%12C%11%21)C%10C9%20)C8C7%19)C6C5%18)C4C3%17` (centres unmarked) [cucurbit[8]uril], the “photostabilisation … by the cucurbituril” value in data set [4] is given as “best photostabilisation”.

Take `O=C1OC2(c3ccc(O)cc3Oc3cc(O)ccc32)c2ccccc21` [fluorescein]: in data set [4] (anionic fluorescent dye), the “improvement in photostability by cucurbiturils according to formulae (B) to (E)” value is on record as “only a slight or no improvement”.

Consider rhodamine 123, for which, in data set [1] (with 1 mM CB7), the “ε × φf (brightness)” value amounted to 24097 and the φf is listed as 0.362. In addition, in data set [1] (without CB7), the “ε × φf (brightness)” value was 57470 and the φf amounted to 0.83. In data set [2] (with 1 mM CB7), this compound returned a λabs max of 502.6 and a λem max of 532.0. In data set [2] (without CB7), this compound gave a λabs max of 500.0 and a λem max of 525.0. Moreover, the “photostabilisation by the use” value in data set [4] is “Particularly good photostabilisation”. For the same compound, the “number of absorption cycles before a molecule decomposes” value in data set [5] (without cucurbit[7]uril) was found to be 1.6 million.

Values taken from patent US7511284B2, “Photostabilisation of fluorescent dyes” (International University Bremen GmbH, priority 2004, dated 2009).
